Reference: patent publication US5498632A, “Esters of acyl carnitines with long-chain aliphatic alcohols and pharmaceutical compositions containing same having antibacterial activity” (Sigma-Tau Industrie Farmaceutiche Riunite S.p.A., priority 1992, dated 1996)

Tests used:
[1] = Assessment of behaviour and mortality in mice (Irwin's method); parameters: species or system mouse (male Crl:(CD-1)(ICR)BR); conditions: mouse, in vivo; oral, dose 1000, 4 animals/dose
Protocol: (§1) The assessment of normal behaviour in mice was carried out following S. Irwin's method (Psychopharmacologia, 13, 222 [1968]). This method allows alterations in some behavioural, neurophysiologic and neurovegetative parameters to be detected, which are directly observable by the researcher. The study was conducted using male Crl:(CD-1)(ICR)BR mice (Charles River--Italy) weighing 22-25 g, following oral administration of the compounds suspended in carboxymethylcellulose (0.5% by weight in H2 O) to groups of 4 animals/dose.
(§2) The animals were continously kept under observation for five hours following treatment and twice a day in the subsequent five days. Mortality was also observed during the overall test period.

[2] = tested on: mice; experiment: as above; parameters: species or system mouse (male Crl:(CD-1)(ICR)BR); conditions: mouse, in vivo, po
Protocol: as §1, §2

[3] = tested on: peritoneal macrophage; experiment: Test 4: peritoneal macrophage number in mice; assay type: in vivo, mouse (male B6 D2 F1); conditions: 100 mg/kg/day for 5 consecutive days, oral
Protocol: Evaluation of the effect of repeated oral administrations of ST 722 on the peritoneal macrophage number in mice.
Male B6 D2 F1 mice (C. River) aged 10 weeks (6 animals each group) were orally treated with the substance ST 722 at the dose of 100 mg/kg/day for 5 consecutive days. Twenty-four hours after the last administration, the animals were sacrificed, the peritoneal exudate cells (PEC) collected and the macrophage number determined.

[4] = tested on: H. pylori planktonic cells (NCTC 11637); experiment: Bactericidal effect against H. pylori planktonic cells; assay type: cell-based, Helicobacter pylori
From the text: The investigation aimed at evaluating the difference in susceptibility to ST 722 of planktonic and sessile Helicobacter cells, using in the latter case an "in vitro" experimental model, which closely resembled the clinical condition occurring "in vivo" in type-B gastritis. We used HEp-2 cells, an epithelial cell line which harbors the same membrane glycolipid receptors for H. pylori as those harbored by the mucous cells of the antral gastric mucosa (MEGRAUD, F., TRIMOULET, P., LAMOULIATTE, H. and BOYANOVA, L., 1991. Bacterial effect of Amoxicillin on "H. pylori" in an in vitro model using epithelial cells. Antimicrob. Agents Chemoter. 35 (5): 869-872 and LINGWOOD, C. A., LAW, H. and PELLIZANI, A., 1989. Gastric glycerolipid as a receptor for Campylobacter pylori. Lancet i: 238-241). Additionally, the viability of HEp-2 cells (either infected or not) was evaluated following "in vitro" ST 722 treatment. The degree of cytotoxicity was assessed by cytofiuorimetric analysis of Propidium Iodine-stained HEp-2 cells.
Helicobacter pylori NCTC 11637.
The antibacterial and cytotoxic activity of ST 722 against Helicobacter and HEp-2 cells, respectively, was evaluated by using 3 different ST 722 concentrations, namely 0.1, 1.56 (i.e. the MIC value vs. H. pylori NCTC 11637) and 4 mcg/ml.
After making geometric dilutions of the suspensions (0.1 ml of each dilution inoculated onto each plate in triplicate), the plates were incubated for 7 days in a microaerobic atmosphere, and the plates with 30 to 200 CFU were counted.
The ST 722 activity against Helicobacter planktonic cells was determined in the same experimental conditions in the absence of HEp-2 cells. Finally, the results are expressed as CFU per flask of each sample with respect to the relevant control (i.e. sessile or planktonic cultures).

[5] = tested on: HEp-2 cells; experiment: HEp-2 cell viability (Propidium Iodine cytofluorimetry); assay type: cell-based, human
Protocol: The investigation aimed at evaluating the difference in susceptibility to ST 722 of planktonic and sessile Helicobacter cells, using in the latter case an "in vitro" experimental model, which closely resembled the clinical condition occurring "in vivo" in type-B gastritis. […] Additionally, the viability of HEp-2 cells (either infected or not) was evaluated following "in vitro" ST 722 treatment. The degree of cytotoxicity was assessed by cytofiuorimetric analysis of Propidium Iodine-stained HEp-2 cells. […]
The antibacterial and cytotoxic activity of ST 722 against Helicobacter and HEp-2 cells, respectively, was evaluated by using 3 different ST 722 concentrations, namely 0.1, 1.56 (i.e. the MIC value vs. H. pylori NCTC 11637) and 4 mcg/ml. […]
Three and twenty-four hours following ST 722 addition, the cells were trypsinized and harvested by centrifugation at 800 g, The cell pellets were then resuspended in 500 μl PBS and additioned with 6 μl of a 1 mcg/ml Propidium Iodine stock solution in PBS, The same procedure was followed for the control, i.e. HEp-2 cells not infected with H. pylori. The cell suspensions were finally analyzed by means of a FACScan cytofluorimeter.

SMILES: CCCCCCCCCCCOC(=O)CC(C[N+](C)(C)C)OC(=O)CC(C)C [ST 722, Isovaleryl-L-Carnitine Undecyl Ester Chloride]
- mortality at 120 h [1]: 0%
- Symptoms [2]: salivation, diarrhoea
- Body weight [3]: 28.13 ± 1.30 g
- increase in the peritoneal macrophages number [3]: about 60%
- toxic effect in PEC macrophage population [3]: No toxic effect has been observed
- PEC M.phi. ([3]; 6 pooled samples): 63%
- Planktonic cells (CFU per flask) ([4]; 3-h contact, 0.1 mcg/ml): 9.50 × 10^5 CFU per flask
- Planktonic cells (CFU per flask) ([4]; 3-h contact, 1.56 mcg/ml): 3.50 × 10^5 CFU per flask
- Planktonic cells (CFU per flask) ([4]; 3-h contact, 4.0 mcg/ml): 1.00 × 10^5 CFU per flask
- Planktonic cells (CFU per flask) ([4]; 24-h contact, 0.1 mcg/ml): 9.00 × 10^7 CFU per flask
- Planktonic cells (CFU per flask) ([4]; 24-h contact, 1.56 mcg/ml): 4.05 × 10^6 CFU per flask
- Planktonic cells (CFU per flask) ([4]; 24-h contact, 4.0 mcg/ml, control 5.35 × 10^8): 1.85×10^6 CFU per flask
- complete medium sterilization ([4]; planktonic cells): a complete medium sterilization was not attained
- cytotoxicity versus HEp-2 cells ([5]; 4 mcg/ml (data not shown)): unable to induce detectable cytotoxicity
- cytotoxicity versus HEp-2 cells ([5]; Propidium Iodine staining): devoid of any cytotoxicity
